These results are taken from ChEMBL document CHEMBL4340575, “Design, synthesis and biological evaluation of novel aryl-acrylic derivatives as novel indoleamine-2,3-dioxygenase 1 (IDO1) inhibitors” (Bioorg Med Chem, 2019).

By IC50 is commonly meant the concentration that gives 50% inhibition.

For data set [1], the target named is T1, Indoleamine 2,3-dioxygenase 1 (Homo sapiens, UniProt P14902). In words: Inhibition of IDO1 in interferon-gamma-induced human HeLa cells using L-tryptophan substrate incubated for 24 hrs. Format: cell-based.
T1 sequence (P14902 whole entry): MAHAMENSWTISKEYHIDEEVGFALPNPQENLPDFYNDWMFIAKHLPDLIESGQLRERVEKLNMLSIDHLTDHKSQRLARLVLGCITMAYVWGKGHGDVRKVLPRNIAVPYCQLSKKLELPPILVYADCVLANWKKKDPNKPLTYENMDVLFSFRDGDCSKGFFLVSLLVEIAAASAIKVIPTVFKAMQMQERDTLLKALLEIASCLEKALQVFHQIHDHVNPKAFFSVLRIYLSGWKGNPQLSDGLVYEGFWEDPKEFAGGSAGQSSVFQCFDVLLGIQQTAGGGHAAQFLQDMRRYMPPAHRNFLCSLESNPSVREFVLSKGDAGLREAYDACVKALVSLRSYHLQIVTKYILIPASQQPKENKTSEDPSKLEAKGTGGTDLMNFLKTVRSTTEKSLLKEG
A further data set concerns HeLa. In words: Toxicity in human HeLa cells assessed as reduction in cell viability. Type of data set: cell-based.
Data set [2] addresses T1, Indoleamine 2,3-dioxygenase 1. In words: Inhibition of purified recombinant human IDO1 using L-tryptophan substrate incubated fro 30 mins.

As to `CCCCN(CCCC)c1ccc(/C(C)=C/C(=O)O)cc1NC(=O)N/N=C/c1ccccc1C(F)(F)F`, the IC50 in data set [1] was determined as 2.83 µM; in data set [2] it was 12.3 µM. The Activity entry in the data set with HeLa is “Non-Toxic”.

Take `CCCCN(CCCC)c1ccc(/C(C)=C/C(=O)O)cc1NC(=O)N/N=C/c1ccc(Cl)cc1`: the IC50 turned out to be 3.87 µM in data set [1] and 14.4 µM in data set [2]. Also, the Activity entry in the data set with HeLa was “Non-Toxic”.

For the compound `C/C(=C\C(=O)O)c1ccc(N(CC(C)C)CC(C)C)c(NC(=O)N/N=C/c2ccccc2F)c1`, the IC50 is 1.95 µM in data set [1] and 10.1 µM in data set [2]. Also, in the data set with HeLa, the Activity entry was “Non-Toxic”.

On to `C/C(=C\C(=O)O)c1ccc(N2CCOCC2)c(-n2cc(CNc3ccc(F)cc3)nn2)c1`, for which the figures for the IC50 in data set [1] and in data set [2] were 20 µM and 58.3 µM, respectively.

`C/C(=C\C(=O)O)c1ccc(N(CC(C)C)CC(C)C)c(NC(=O)N/N=C/c2ccc(Cl)cc2)c1`: the IC50 in data set [1] is 1.02 µM; in data set [2], 10.2 µM. Also, the Activity entry with HeLa is listed as “Non-Toxic”.
